Marks after values point to notes of the source that are not given here.
B1: FIP: fungal immunomodulatory protein isolated from Flammalina velutipes, amino acid sequence ID No. 3 (protein)
chain: SATSLTFQLAVLVKKIDFDYTPNWGRGTPSSYIDNLTFPKVLTDKKYSYRVVVNGSDLGVESNFAVTPSGGQTINFLQYNKGYGVADTKTIQVFVVIPDTGNSEEYIIAEWKKT
modifications: Flammalina velutipes

Columns and labels:
Type in all cases: in vivo
Balb/c mice [1] = assay: Free radical production in BALF (chemiluminescence) after LNIT; conditions: FIG. 4, chemiluminescence, expressed as counts/10 seconds, compared to NS control
Description: (§1) Mice were immunized by way of an intraperitoneal (IP) injection of 1 μg/0.1 mL rDp2 emulsified in 4.0 mg/0.062mL aluminum hydroxide Al(OH)3 (Whitehall Lab Ltd. Punchbowl, NSW, Australia) on day 0 and day 7. Following immunization, local nasal immunotherapy (LNIT) was conducted daily from day 14 to day 35 with Dp2 28-40, Dp2 28-40A, FIP alone or FIP mixed with either Dp2 28-40 or Dp2 28-40A (FIP, 50 μg/mouse/day; Dp2 peptide, 1 μg/20 μL) in PBS with 10% glycerol. Normal saline (NS) and irrelevant allergen Bt were used as a negative control. […] On day 28, mice were lightly anesthetized with an IP injection of 60 mg/kg of sodium pentobarbital (Sigma Chemical Co., St Louis, Mo., U.S.A.) and inoculated intratracheally (IT) with 1 μg/50 μL of rDp 2 on day 28 and day 35. Two days subsequent to the second IT inoculation, the mice were sacrificed following the assessment of their pulmonary function (FIG. 1).
Using chemiluminescence, free radicals in the BAL fluid were measured immediately after each experiment. The total amounts of free radical were detected and expressed as counts/10 seconds.

Balb/c mice [2] = assay: Cytokine producing cells in peripheral blood (flow cytometry) after LNIT; conditions: for IL-5/IFN-γ (CD4) / IL-5/IFN-γ (CD8): peripheral blood
Description: (§2) Male Balb/c mice were obtained from the National Laboratory Breeding Research Center in Taiwan and were raised in a specific pathogen-free environment. The mice used were between six and eight weeks of age. Groups of six mice were caged separately according to their treatment.
as §1
Two-color staining methods were used to analyze IFN-γ and IL-5 expression amongst CD4 cells. Leukocytes derived from peripheral blood (PBL) were stimulated with PMA (50 ng/mL), ionomycin (2 μM) and GolgiStop (Cytofix/Cytoperm Plus Pharmingen San Diego, Calif., U.S.A.) for five hours and then washed twice using PBS. The cells were stained with CD4-PerCP, CD8-FITC or IgG1-FITC (PharMingen) at room temperature (RT) for 30 minutes and then washed. Cells were fixed with cytofix/cytoperm at RT for 30 minutes and then stained with anti-cytokine antibody and IgG2a-PE (PharMingen) at RT for 30 minutes and subsequently washed. Both IgG1-FITC and IgG2a-PE were purchased from the same manufacturer as the anticytokine antibodies and the negative controls. Cells were resuspended in 0.5 mL PBS containing 0.1% w/v sodium azide. Mean fluorescence was measured by means of Becton Diskinson flow cytometry (Becton Diskinson, Calif., U.S.A.). A total of 2,000 cells was analyzed for each sample.

Balb/c mice [3] = assay: Leukocyte subpopulations in BALF of rDp2-sensitized mice after local nasal immunotherapy (LNIT); conditions: for Eosinophil / Lymphocyte / Macrophage / Neutrophil / Total cell: BALF; for anti-inflammatory effect on airway inflammation: Example 1, BALF inflammatory cells compared to the NS groups
Description: Male Balb/c mice were obtained from the National Laboratory Breeding Research Center in Taiwan and were raised in a specific pathogen-free environment. The mice used were between six and eight weeks of age. Groups of six mice were caged separately according to their treatment. Recombinant Dermatophoides pteronyssinus group 2 (rDp2) was prepared as previously described(Tsai J J, et al. Int Arch Allergy Immunol 2000;121:205-10). Dp2 28-40 and Dp2 28-40A were obtained from Dr. Jonathan Lamb (Respiratory Medicine Unit, Edinburgh University, Medical School, Edinburgh, UK) (Verhoef A, and Lamb J R. J Immunol 2000;164:6034-6040). FIP was obtained from Dr. Ko Jiunn-Liang (Institute of Toxicology, Chung Shan Medical University, Taichung, R O C) (J L Ko, et al. Eur. J. Biochem. 1995;228:244-249).
as §1
Subsequent to pulmonary function measurement having been completed, bronchoalveolar lavage (BAL) was performed using the following procedure. BAL fluids were collected with lmL sterile endotoxin-free saline washes of each lung via the trachea for each mouse. BAL cells were washed once with PBS by centrifugation at 200×g at 4° C. Subsequent to washing, the cells were resuspended in RPMI-1640 (Sigma Chemical Co.). The total leukocyte count in BAL fluids was determined using a hemocytometer. The BAL fluids were aspirated and stored at −70° C. until needed for assay purposes. Subsequent to total leukocyte counting, a cytospin preparation of 100 μL BAL fluids (2×10^5 cells/mL) was conducted, the cells being cytocentrifuged directly onto glass slides at 350 r.p.m. for five minutes using a Cytospin 3 cytocentrifuge (Shandon Scientific Limited, Astmoor, Runcorn, UK), and then stained with Liu stain (Tonyar Diagnostic Inc, Taipei & Hien, Taiwan). The differential counts were performed for a total of 200 leukocyte cells.

Balb/c mice [4] = assay: IL-5 and IFN-γ levels in sera and BALF (ELISA) after LNIT; conditions: for IL-5 levels in sera: Example 1, FIG. 3A; for IFN-γ levels in sera: Example 1, FIG. 3B; for IFN-γ / IL-5: Example 2, mean ± SEM, n = 6
Description: as §2, §1
IFN-γ and IL-5 were measured using commercially-available ELISA kits, using a specific mouse monoclonal Ab that recognized different epitopes of the cytokine molecules. The lowest detector range was 10 pg/mL. Given that the BALF was considered to be at too diluted a concentration, IL-4 was not measured.

[5] = Example 1, percentage of positive stained cells in the PBMC of six mice
[6] = Example 1, ratio of IL-5 to IFN-γ producing CD4 cells
[7] = Example 1, ratio of IL-5 to IFN-γ producing CD8 cells
[8] = Example 1, LNIT day 14-35, rDp2 IT challenge, mean ± SEM of six animals
[9] = Example 2, percentage of total leukocytes in the peripheral blood of six mice
[10] = Example 2 (FIP study), mean ± SEN of six mice

| Molecule | CD4^+ (Balb/c mice [2]; [5]) [percentage] | CD8^+ (Balb/c mice [2]; [5]) [percentage] | IFN-γ^+/CD4^+ (Balb/c mice [2]; [5]) [percentage] | IFN-γ^+/CD8^+ (Balb/c mice [2]; [5]) [percentage] | IL-5^+/CD4^+ (Balb/c mice [2]; [5]) [percentage] | IL-5^+/CD8^+ (Balb/c mice [2]; [5]) [percentage] | IL-5/IFN-γ (CD4) (Balb/c mice [2]; [6]) | IL-5/IFN-γ (CD8) (Balb/c mice [2]; [7]) | Eosinophil (Balb/c mice [3]; [8]) | Lymphocyte (Balb/c mice [3]; [8]) | Macrophage (Balb/c mice [3]; [8]) | Neutrophil (Balb/c mice [3]; [8]) | Total cell (Balb/c mice [3]; [8]) | anti-inflammatory effect on airway inflammation (Balb/c mice [3]) | IL-5 levels in sera (Balb/c mice [4]; compared to NS treated mice) | IFN-γ levels in sera (Balb/c mice [4]; compared to NS treated mice) | other results |
| --- | --- | --- | --- | --- | --- | --- | --- | --- | --- | --- | --- | --- | --- | --- | --- | --- | --- |
| Dp2 28-40: Dermatophoides pteronyssinus group 2 (Dp2) epitope peptide, residues 28-40, amino acid sequence ID No. 1 (IIHRGKPFQLEAV; listed as Dermatophoides pteronyssinus) | 56.0 | 9.8 | 27.8 | 16.8 | 17.7 | 9.5 | 0.6 | 0.6 | 3.5 ± 0.5* 10^4 cells/mL | 11.8 ± 0.8* 10^4 cells/mL | 31.0 ± 2.5* 10^4 cells/mL | 7.2 ± 1.5* 10^4 cells/mL | 53.3 ± 4.1* 10^4 cells/mL | best anti-inflammatory effect | decreased | Significantly increased | free radical production in the BAL fluid (Balb/c mice [1]): significantly inhibited; IL-5 levels in BALF (Balb/c mice [4]; Example 1, FIG. 3C, compared to NS treated mice): significant reduction; IFN-γ levels in BALF (Balb/c mice [4]; Example 1, FIG. 3D, compared to NS treated mice): significant increase |
| Dp2 28-40A: altered TCR ligand of Dp2 28-40, residues at positions 34 and 36 substituted by alanine; amino acid sequence ID No. 2 (IIHRGKAFALEAV; listed as Dermatophoides pteronyssinus) | 51.8 | 10.7 | 11.4 | 5.8 | 11.4 | 3.5 | 1.0 | 0.6 | 3.0 ± 1.0* 10^4 cells/mL | 14.6 ± 3.3* 10^4 cells/mL | 38.4 ± 7.2* 10^4 cells/mL | 8.2 ± 1.1* 10^4 cells/mL | 65.0 ± 3.2* 10^4 cells/mL | weaker than Dp2 28-40 | decreased | Significantly increased |  |
| B1 |  |  |  |  |  |  |  |  |  |  |  |  |  |  |  |  | CD4 (Balb/c mice [2]; [9]): 29.1 percentage; CD8 (Balb/c mice [2]; [9]): 7.0 percentage; IFN-γ^+/CD4^+ (Balb/c mice [2]; [9]): 13.7 percentage; IFN-γ^+/CD8^+ (Balb/c mice [2]; [9]): 5.0 percentage; IL-5^+/CD4^+ (Balb/c mice [2]; [9]): 12.6 percentage; IL-5^+/CD8^+ (Balb/c mice [2]; [9]): 8.4 percentage; IL-5/IFN-γ (CD4) (Balb/c mice [2]; Example 2, ratio, CD4 cells): 0.9; IL-5/IFN-γ (CD8) (Balb/c mice [2]; Example 2, ratio, CD8 cells): 1.7; Eosinophil (Balb/c mice [3]; [10]): 6.3 ± 1.3 ×10^4/mL; Lymphocyte (Balb/c mice [3]; [10]): 13.0 ± 1.8 ×10^4/mL; Macrophage (Balb/c mice [3]; [10]): 37.0 ± 7.4 ×10^4/mL; Neutrophil (Balb/c mice [3]; [10]): 9.0 ± 2.4 ×10^4/mL; Total cell (Balb/c mice [3]; [10]): 65.0 ± 10.5 ×10^4/mL; airway-inflammation level (cellular component in BALF) (Balb/c mice [3]; Example 2, text summary of Table 3): diminish the airway-inflammation level; IFN-γ (Balb/c mice [4]; BALF): 8.3 ± 0.4 pg/mL; IL-5 (Balb/c mice [4]; BALF): 19.3 ± 1.9 pg/mL; IFN-γ (Balb/c mice [4]; Sera): 52.0 ± 1.9 pg/mL; IL-5 (Balb/c mice [4]; Sera): 77.6 ± 1.9 pg/mL |
